Key:
Experiment in all cases: relative viability (nuclei count vs DMSO), 5 days (fraction); higher = more cells survive
[1] = compound: C1COCCN1C2=NC(=NC3=C2OC4=C3C=CC=N4)C5=CC(=CC=C5)NC(=O)C6=CN=C(C=C6)N + C[C@]1(O)C[C@@H](c2nc(-c3ccc4ccc(-c5ccccc5)nc4c3)c3c(N)nccn32)C1 [Linsitinib] (partner 1 µM)
Method in brief: (§1)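 Lung cancer cell lines were pin-tool dosed in 1536-well plates on the day after seeding, with either a lone drug or a fixed anchor-drug dose plus five library-drug doses (not always all listed) in √10 steps. Nuclei were counted on 4× images after 5 days. Relative viability is the ratio of treated-well to vehicle-well nuclei counts, with each value a median of duplicate plates.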

[2] = compound: C1COCCN1C2=NC(=NC3=C2OC4=C3C=CC=N4)C5=CC(=CC=C5)NC(=O)C6=CN=C(C=C6)N + N=C(N)NC(=N)NCCc1ccccc1 [Phenformin] (partner 250 µM)
Method in brief: as §1

SGI-1776 + Palbociclib = compound: CN1CCC(CNc2ccc3ncc(-c4cccc(OC(F)(F)F)c4)n3n2)CC1 [SGI-1776] + CC(=O)c1c(C)c2cnc(Nc3ccc(N4CCNCC4)cn3)nc2n(C2CCCC2)c1=O [Palbociclib] (partner 0.5 µM)
Method in brief: as §1

Entinostat + Linsitinib = compound: Nc1ccccc1NC(=O)c1ccc(CNC(=O)OCc2cccnc2)cc1 [Entinostat] + C[C@]1(O)C[C@@H](c2nc(-c3ccc4ccc(-c5ccccc5)nc4c3)c3c(N)nccn32)C1 [Linsitinib] (partner 1 µM)
Method in brief: as §1

UMC-11 was tested, and the relative viability ([1]; first compound 0.02 µM) was 0.966, the relative viability ([1]; first compound 0.06325 µM) was 1.04 and the relative viability ([1]; first compound 0.2 µM) was 1.11. The relative viability ([1]; first compound 0.6325 µM) was 1.34, the relative viability ([1]; first compound 2 µM) was 0.666 and the relative viability ([2]; first compound 0.02 µM) was 0.302. For the same cell line, the relative viability ([2]; first compound 0.06325 µM) was 0.327, the relative viability ([2]; first compound 0.2 µM) was 0.33 and the relative viability ([2]; first compound 0.6325 µM) was 0.308. For the same cell line, the relative viability ([2]; first compound 2 µM) was 0.204, the relative viability (SGI-1776 + Palbociclib; first compound 0.08 µM) was 0.366 and the relative viability (SGI-1776 + Palbociclib; first compound 0.8 µM) was 0.338. The relative viability (SGI-1776 + Palbociclib; first compound 2.53 µM) was 0.378, the relative viability (SGI-1776 + Palbociclib; first compound 8 µM) was 0.312 and the relative viability (Entinostat + Linsitinib; first compound 0.02 µM) was 1.11. The relative viability (Entinostat + Linsitinib; first compound 0.06325 µM) was 1, the relative viability (Entinostat + Linsitinib; first compound 0.2 µM) was 0.715 and the relative viability (Entinostat + Linsitinib; first compound 0.6325 µM) was 0.214. It also gave a relative viability (Entinostat + Linsitinib; first compound 2 µM) of 0.142.

From the supplement of paper PMC10307832
